In PMC9939320 (Acta Pharmaceutica Sinica. B, 2022) one finds CC50 data, which are given here for two molecules.

A short description of this data set: cytotoxicity. Format: cell-based.

In turn, `CC1=CC[C@@H]2[C@]34CC[C@](O)(OC3)C(C)(C)[C@@H]4CC[C@@]2(C)[C@@]12Oc1cc(-c3cccnc3)oc(=O)c1[C@@H]2O` [Compound 8, decaturin B] returned a CC50 above 100 µM.

Molecule `NC(=O)c1ncn([C@@H]2O[C@H](CO)[C@@H](O)[C@H]2O)n1` [Ribavirin] registered a CC50 above 100 µM.

One may read the CC50 as the concentration that lowers cell viability or growth by half.
